The test system of this assay is 3D foam cell spheroid. In words: HIFU implantation of loaded mcPLGA MPs into 3D foam cell spheroids (fluorescence). It counts as cell-based, human. Particulars: HIFU exposure, 1 mg/ml. How it is done:
As the cells in the ex vivo porcine artery were considered non-viable, we have also tested the ability to deliver DAPI to viable cells using a 3D foam cell spheroid model (FIG. 13).
THP-1 cells, a human monocytic cell line (ATCC, Rockville, MD) were routinely cultured in Roswell Park Memorial Institute (RPMI) 1640 Medium supplemented with 100 IU/ml of penicillin, 100 µg/ml streptomycin, 2 mmol/l L-glutamine, 10% (vol/vol) FBS and incubated in a humidified atmosphere of 5% CO2 in an incubator at 37° C. The medium was replaced every 2-3 days by centrifuging these suspended cells at 125 g for 5 min. For differentiation of THP-1 monocytes into macrophages, THP-1 cells were seeded at a density of 7 × 10^5 cells/ml with differentiation medium, growth medium supplemented with 50 ng/mL phorbol 12-myristate 13-acetate (PMA), for 3 days to obtain macrophages. Subsequently, for foam cells induction, macrophages were incubated with 100 µg/ml oxLDL (Low Density Lipoprotein from Human Plasma, oxidized; Invitrogen,USA) in the differentiation medium for 2 days.
Foam cells were used to produce a three-dimensional (3D) foam cell spheroid model by modification of the hanging drop method. Single-cell suspensions were generated from trypsinized monolayers. […]
Fluorescence microscopy was used to analyze the distribution of mcPLGA MPs and the release of therapeutics (FIG. 27c). […]

These results are taken from US20230248652A1, “BIODEGRADEABLE MULTI-CAVITY MICROPARTICLES AND THEIR USE IN TREATMENT” (OXFORD UNIVERSITY INNOVATION LIMITED, priority 2020, published 2023).

Regarding `N=C(N)c1ccc(-c2cc3ccc(C(=N)N)cc3[nH]2)cc1` [DAPI], the “delivery of DAPI / particle distribution in foam cell spheroid” value is “diffused through the membranes of the cells to stain the DNA of the foam cells”.
